This is an account of results in PMC12429584, “5-Hydroxylysine Captures the Suicidally-Inactivated Conformational State of Lysine 5,6-Aminomutase” (International Journal of Molecular Sciences, 2025).

Assay [1] concerns the target T1, Lysine 5,6-aminomutase (5,6-LAM) (Acetoanaerobium sticklandii, UniProt E3PRJ4+E3PRJ5).
T1 construct: gene kamD
T1 sequence (E3PRJ5 1-519 limits assumed): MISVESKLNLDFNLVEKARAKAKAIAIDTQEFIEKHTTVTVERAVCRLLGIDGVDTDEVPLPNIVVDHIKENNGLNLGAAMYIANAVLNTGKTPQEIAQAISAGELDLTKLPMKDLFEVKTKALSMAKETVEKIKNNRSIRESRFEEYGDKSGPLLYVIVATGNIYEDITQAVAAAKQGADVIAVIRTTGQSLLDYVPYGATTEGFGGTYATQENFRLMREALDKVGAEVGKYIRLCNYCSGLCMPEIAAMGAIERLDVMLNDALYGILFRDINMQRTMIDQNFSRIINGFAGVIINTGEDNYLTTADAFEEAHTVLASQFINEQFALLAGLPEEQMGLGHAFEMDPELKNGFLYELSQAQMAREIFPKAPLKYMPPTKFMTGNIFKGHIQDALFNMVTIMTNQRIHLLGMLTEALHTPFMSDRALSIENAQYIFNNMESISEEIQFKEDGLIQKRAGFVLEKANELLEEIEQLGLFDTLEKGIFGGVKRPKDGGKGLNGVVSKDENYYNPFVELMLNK
T1 sequence (E3PRJ4 1-262): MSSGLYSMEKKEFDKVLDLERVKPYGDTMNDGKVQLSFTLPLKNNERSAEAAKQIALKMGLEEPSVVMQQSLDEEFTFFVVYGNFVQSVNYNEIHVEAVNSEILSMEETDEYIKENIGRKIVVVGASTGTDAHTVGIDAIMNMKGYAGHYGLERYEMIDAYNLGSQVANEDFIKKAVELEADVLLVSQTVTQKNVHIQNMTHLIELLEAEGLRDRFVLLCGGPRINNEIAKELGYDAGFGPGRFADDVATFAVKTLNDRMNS
In words: UV-visible and X-band EPR spectroscopy. It counts as binding. Conditions: PLP and dAdoCbl holoenzyme, 100 mM NH4-EPPS pH 8.5, 37 °C; 2.5 mM (UV-vis) or 30 mM (EPR) 5-HL; active site, external aldimine with PLP; mechanism-based (suicide) inhibitor; stereoisomer mixture.

Assay [2] deals with T1, Lysine 5,6-aminomutase (5,6-LAM). Conditions: turnover to 2,5-DAH at 1 and 3 min; PLP and dAdoCbl as cofactors.

For `NCC(O)CCC(N)C(=O)O` (racemic) [5-HL, 5-hydroxylysine], the “UV-visible and X-band EPR spectroscopy” value in assay [1] is “These spectral changes demonstrate that 5-HL mimics the initial steps of transaldimination and Co–C bond rupture”. As to `NCCCC[C@@H](N)C(=O)O` [D-lysine], the “thin-layer chromatography of product, ninhydrin” value in assay [2] was “bottom spot corresponding to D-lysine and the top spot corresponding to the product”.
